Our source for the Ki and Kd values is publication PMC3310947 (Chemical biology & drug design, 2012).

The term Ki denotes the dissociation constant of the complex between target and ligand, obtained from inhibition or displacement. Low readings indicate a stronger hold on the target, high ones a looser hold on the target. As a reminder, the Kd is a measure of binding affinity in units of concentration.

Assay [1] has as its target T1, mouse Dvl1 PDZ domain (mDvl1 residues 247-341) (Mus musculus, UniProt P51141, C338A).
T1 sequence (P51141 247-341 C338A): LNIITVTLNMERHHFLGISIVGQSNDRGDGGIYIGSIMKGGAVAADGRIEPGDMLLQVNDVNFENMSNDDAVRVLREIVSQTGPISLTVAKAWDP
The experiment in a line: fluorescence polarization competition with Rox-DprC. It is filed as binding. For orientation: Fluorescence polarisation rises when a labelled molecule tumbles more slowly, as on binding a larger partner.

Assay [2] addresses T1, mouse Dvl1 PDZ domain (mDvl1 residues 247-341). The experiment in a line: […]-HSQC NMR chemical shift titration. Type of assay: binding.

The compound `Cc1ccc(C[C@H](NC(=O)c2cccc(F)c2)C(=O)N[C@@H](CC(C)C)C(=O)O)cc1` [J01-007] displayed a Ki in assay [1] of 4.2 ± 0.46 µM. Moreover, the Kd in assay [2] amounted to 2.27 µM.

In the case of `Cc1ccc(C[C@H](NC(=O)c2cccc(C#N)c2)C(=O)N[C@@H](CC(C)C)C(=O)O)cc1` [J01-012], the Kd in assay [2] worked out at 1.83 µM.

`Cc1ccc(C[C@H](NC(=O)c2cccc(C)c2)C(=O)N[C@@H](CC(C)C)C(=O)O)cc1` [J01-015]: affinity in assay [1] was put at a Ki of 3.5 ± 0.21 µM. The Kd in assay [2] came to 2.96 µM.

In turn, `Cc1ccc(C[C@H](NC(=O)c2cc(C)c(F)c(F)c2)C(=O)N[C@@H](CC(C)C)C(=O)O)cc1` [J01-017a] came in with a Ki in assay [1] of 1.5 ± 0.52 µM.

As for `CC(C)C[C@H](NC(=O)[C@H](Cc1ccccc1)NC(=O)c1cccc(F)c1)C(=O)O` [J02-001], in assay [2], the Kd worked out at 7.67 µM.

With `CC(C)C[C@H](NC(=O)[C@H](Cc1ccccc1)NC(=O)c1ccc(F)cc1)C(=O)O` [J02-002], the Kd in assay [2] is 3.49 µM.
